26 molecules from US9120780B2, “Indole or indazole derivative or salt thereof” (TAIHO PHARMACEUTICAL CO., LTD., priority 2011, dated 2015) can be followed below.

Structures are written as SMILES.

For test [1], the target named is human HSP90 alpha protein (N-terminal, amino acids 2-236) (Homo sapiens (Human), UniProt P07900). Nature of the test: Measurement of HSP90-binding activity (AlphaScreen competitive assay, biotin-labeled geldanamycin). The settings on record: inhibition of biotin-labeled geldanamycin binding to purified HSP90; read-out: HSP-binding activity IC50. How it is done: First, a solution of purified HSP90 was prepared as follows. […] The pET-HSP90N was introduced into Escherichia coli cells (BL21 (DE3), Stratagene Inc.), and then the Escherichia coli cells were cultured in the presence of 0.5 mM isopropyl-beta-D-thiogalactopyranoside (Sigma-Aldrich Corp.) at 37° C. for 4 hours. The Escherichia coli cells were collected, suspended in a lysis buffer (50 mM Tris-HCl (pH 7.5), 200 mM NaCl), and sonicated. The sonicated cell solution was centrifuged (40,000×g, 20 minutes) to obtain supernatant as a crude extract. The crude extract was fractionated by Ni Sepharose High Performance (GE Healthcare Japan Corporation) chromatography and HiLoad 26/60 Superdex 75 pg (GE Healthcare Japan Corporation), and the fraction in which HSP90 protein was concentrated was prepared so as to be a 50 mM Tris-HCl (pH 7.5)/20% glycerol solution as a purified HSP90 solution. The purified HSP90 solution was divided and stored at −80° C. until use.
The HSP90-binding activity was measured by an AlphaScreen competitive assay system. […] After reaction at room temperature for 2 hours, biotin-labeled geldanamycin was added to each reaction solution in an amount of 40 nM, followed by reaction for further 1 hour. […] After reaction in a dark place at room temperature for 1 hour, the fluorescence intensity in each well was measured with a multilabel plate reader, EnVision (Perkin Elmer, Inc.). The inhibition rate (%) of biotin-labeled geldanamycin binding by a compound of the present invention was determined by the following equation using the fluorescence signal of a test substance-free group (control) as a control. […] Inhibition rate (%)=(C−T)/C×100 T: signal in a well to which a test substance was added C: signal in a well to which no test substance was added

A further test has as its system SK-BR-3 cells. Nature of the test: Measurement of cell growth inhibition (crystal violet staining). Type of test: cell-based. Particulars: Homo sapiens, 72 hours culture with test substance. The protocol:
Cell growth was measured by a crystal violet staining method. […] The cells were cultured in a 5% CO2 incubator at 37° C. for 24 hours, and then test substances were added to the plate, followed by culturing for further 72 hours. […] The plate was left to stand at room temperature for 20 minutes for staining the cells. The plate was washed with water and dried, and 100 μL of a mixed solution of 0.05 M NaH2PO4 and ethanol (mixture in equal amounts) was added to each well. The absorbance at 540 nm was measured with a microplate reader (MTP-450, Corona Electric Co., Ltd.) as an index of the number of cells in each well. The inhibition rate (%) of cell growth by a compound of the present invention was determined by the following equation using the absorbance of a drug-untreated group (control) as a control. […] Inhibition rate (%)=(C−T)/C×100 T: absorbance in a well to which a test substance was added C: absorbance in a well to which no test substance was added

In the case of `COc1ccc2ccn(-c3ccc(C(N)=O)c(NC4CCC(O)CC4)c3)c2c1` (stereo not drawn) [Comparative Example 1, reference compound], the half-inhibitory concentration (IC50) in test [1] was over 100 µM.

Take `COc1cccc2c1ccn2-c1ccc(C(N)=O)c(NC2CCC(O)CC2)c1` (stereo not drawn) [Comparative Example 2, reference compound]: the IC50 in test [1] is over 100 µM.

Consider `COc1cc2ccn(-c3ccc(C#N)c(Nc4ccccc4)c3)c2cc1OC` [Comparative Example 3, reference compound], for which the IC50 in test [1] is over 10 µM.

Turning to `COc1cc2ccn(-c3ccc(C(N)=O)c(Nc4ccccc4)c3)c2cc1OC` [Comparative Example 4, reference compound], the IC50 (in test [1]; in the test on SK-BR-3 cells) was over 10 µM each time.

As to `COc1ccc2c(c1)cc(C)n2-c1ccc(C(N)=O)c(Nc2ccccc2)c1` [Comparative Example 5, reference compound], the concentration for half-maximal inhibition (IC50) in test [1] was over 100 µM; in the test on SK-BR-3 cells, over 10 µM.

As for `NC(=O)c1ccc(-n2ccc3ccccc32)c(Cl)c1` [Comparative Example 6, reference compound], in test [1], the half-inhibitory concentration (IC50) is over 100 µM.

Regarding `CC(C)c1nn(-c2ccc(C(N)=O)cc2Cl)c2cccc(-n3cnc(-c4cccnc4)c3)c12` [Example 3, 3-Chloro-4-(3-isopropyl-4-(4-(pyridin-3-yl)-1H-imidazol-1-yl)-1H-indazol-1-yl)benzamide], the half-maximal inhibitory concentration (IC50) in test [1] was determined as 0.74 µM; in the test on SK-BR-3 cells, 0.56 µM.

Take `Cc1cc(C(N)=O)ccc1-n1nc(C(C)C)c2c(-n3cnc(-c4cccnc4)c3)cccc21` [Example 4, 4-(3-Isopropyl-4-(4-(pyridin-3-yl)-1H-imidazol-1-yl)-1H-indazol-1-yl)-3-methylbenzamide]: the IC50 in test [1] came out at 0.16 µM; in the test with SK-BR-3 cells, 0.14 µM.

As for `CC(C)c1nn(-c2ccc(C(N)=O)cc2Cl)c2cccc(-n3cnc(-c4cnn(C)c4)c3)c12` [Example 5, 3-Chloro-4-(3-isopropyl-4-(4-(1-methyl-1H-pyrazol-4-yl)-1H-imidazol-1-yl)-1H-indazol-1-yl)benzamide], the IC50 in test [1] stood at 0.24 µM; in the test on SK-BR-3 cells, 0.27 µM.

Turning to `CC(C)c1nn(-c2ccc(C(N)=O)nc2)c2cccc(-n3cnc(-c4cnn(C)c4)c3)c12` [Example 7, 5-(3-Isopropyl-4-(4-(1-methyl-1H-pyrazol-4-yl)-1H-imidazol-1-yl)-1H-indazol-1-yl)-2-pyridinecarboxyamide], the IC50 in test [1] came to 0.37 µM; in the test with SK-BR-3 cells, 1.19 µM.

For `CC(C)Nc1cc(C(N)=O)ccc1-n1nc(C(C)C)c2c(-n3cnc(-c4cccnc4)c3)cccc21` [Example 10, 4-(3-Isopropyl-4-(4-(pyridin-3-yl)-1H-imidazol-1-yl)-1H-indazol-1-yl)-3-(isopropylamino)benzamide], the IC50 amounted to 0.25 µM in test [1] and 0.1 µM in the test on SK-BR-3 cells.

For `CC(C)c1nn(-c2ccc(C(N)=O)cc2NC2CCC2)c2cccc(-n3cnc(-c4cccnc4)c3)c12` [Example 11, 3-(Cyclobutylamino)-4-(3-isopropyl-4-(4-(pyridin-3-yl)-1H-imidazol-1-yl)-1H-indazol-1-yl)benzamide], the 50% inhibitory concentration (IC50) came to 0.3 µM in test [1] and 0.08 µM in the test with SK-BR-3 cells.

Consider `CC(C)Nc1cc(C(N)=O)ccc1-n1nc(C(C)C)c2c(-n3cnc(-c4cnn(C)c4)c3)cccc21` [Example 12, 4-(3-Isopropyl-4-(4-(1-methyl-1H-pyrazol-4-yl)-1H-imidazol-1-yl)-1H-indazol-1-yl)-3-(isopropylamino)benzamide], for which the results for the 50% inhibitory concentration (IC50) (in test [1]; in the test with SK-BR-3 cells) were 0.12 µM and 0.06 µM, respectively.

For `CC(C)c1nn(-c2ccc(C(N)=O)cc2NC2CCC2)c2cccc(-n3cnc(-c4cnn(C)c4)c3)c12` [Example 13, 3-(Cyclobutylamino)-4-(3-Isopropyl-4-(4-(1-methyl-1H-pyrazol-4-yl)-1H-imidazol-1-yl)-1H-indazol-1-yl)benzamide], the IC50 came to 0.2 µM in test [1] and 0.06 µM in the test with SK-BR-3 cells.

Consider `Cn1cc(-c2cn(-c3cccc4c3c(C(F)(F)F)nn4-c3ccc(C(N)=O)c(NC(C)(C)C)c3)cn2)cn1` [Example 14, 2-(Tert-butylamino)-4-(4-(4-(1-methyl-1H-pyrazol-4-yl)-1H-imidazol-1-yl)-3-(trifluoromethyl)-1H-indazol-1-yl)benzamide], for which the IC50 in test [1] was found to be 0.27 µM; in the test on SK-BR-3 cells it was 0.01 µM.

Take `CCNc1cc(-n2nc(C(F)(F)F)c3c(-n4cnc(-c5cnn(C)c5)c4)cccc32)ccc1C(N)=O` [Example 15, 2-(Ethylamino)-4-(4-(4-(1-methyl-1H-pyrazol-4-yl)-1H-imidazol-1-yl)-3-(trifluoromethyl)-1H-indazol-1-yl)benzamide]: the values for the IC50 (in test [1]; in the test with SK-BR-3 cells) were 0.23 µM and 0.02 µM, respectively.

Consider `CC(C)(C)Nc1cc(-n2nc(C(F)(F)F)c3c(-n4cnc(-c5cccnc5)c4)cccc32)ccc1C(N)=O` [Example 16, 2-(Tert-butylamino)-4-(4-(4-(pyridin-3-yl)-1H-imidazol-1-yl)-3-(trifluoromethyl)-1H-indazol-1-yl)benzamide], for which the IC50 in test [1] worked out at 0.29 µM; with SK-BR-3 cells it was 0.03 µM.

Consider `Cc1cc(C(N)=O)ccc1-n1nc(C(F)(F)F)c2c(-n3cnc(-c4cccnc4)c3)cccc21` [Example 17, 3-Methyl-4-(4-(4-(pyridin-3-yl)-1H-imidazol-1-yl)-3-(trifluoromethyl)-1H-indazol-1-yl)benzamide], for which the half-inhibitory concentration (IC50) in test [1] stood at 0.49 µM; in the test on SK-BR-3 cells, 0.3 µM.

Take `CCc1cc(C(N)=O)ccc1-n1nc(C(F)(F)F)c2c(-n3cnc(-c4cnn(C)c4)c3)cccc21` [Example 18, 3-Ethyl-4-(4-(4-(1-methyl-1H-pyrazol-4-yl)-1H-imidazol-1-yl)-3-(trifluoromethyl)-1H-indazol-1-yl)benzamide]: the half-inhibitory concentration (IC50) in test [1] is 0.09 µM; with SK-BR-3 cells, 0.05 µM.

Take `CCc1cc(C(N)=O)ccc1-n1nc(C(F)(F)F)c2c(-n3cnc(-c4cccnc4)c3)cccc21` [Example 19, 3-Ethyl-4-(4-(4-(pyridin-3-yl)-1H-imidazol-1-yl)-3-(trifluoromethyl)-1H-indazol-1-yl)benzamide]: the IC50 in test [1] came out at 0.17 µM; in the test on SK-BR-3 cells, 0.1 µM.

Regarding `CC(C)Nc1cc(C(N)=O)ccc1-n1nc(C(F)(F)F)c2c(-n3cnc(-c4cnn(C)c4)c3)cccc21` [Example 20, 3-(Isopropylamino)-4-(4-(4-(1-methyl-1H-pyrazol-4-yl)-1H-imidazol-1-yl)-3-(trifluoromethyl)-1H-indazol-1-yl)benzamide], the IC50 in test [1] was 0.14 µM; with SK-BR-3 cells it was 0.09 µM.

As to `Cn1cc(-c2cn(-c3cccc4c3c(C(F)(F)F)nn4-c3ccc(C(N)=O)cc3NC3CCC3)cn2)cn1` [Example 21, 3-(Cyclobutylamino)-4-(4-(4-(1-methyl-1H-pyrazol-4-yl)-1H-imidazol-1-yl)-3-(trifluoromethyl)-1H-indazol-1-yl)benzamide], the IC50 in test [1] was 0.15 µM; in the test with SK-BR-3 cells it was 0.07 µM.

As for `CC(C)Nc1cc(C(N)=O)ccc1-n1nc(C(F)(F)F)c2c(-n3cnc(-c4cccnc4)c3)cccc21` [Example 22, 3-(Isopropylamino)-4-(4-(4-(pyridin-3-yl)-1H-imidazol-1-yl)-3-(trifluoromethyl)-1H-indazol-1-yl)benzamide], the half-maximal inhibitory concentration (IC50) is 0.14 µM in test [1] and 0.12 µM in the test with SK-BR-3 cells.

For the molecule `NC(=O)c1ccc(-n2nc(C(F)(F)F)c3c(-n4cnc(-c5cccnc5)c4)cccc32)c(NC2CCC2)c1` [Example 23, 3-(Cyclobutylamino)-4-(4-(4-(pyridin-3-yl)-1H-imidazol-1-yl)-3-(trifluoromethyl)-1H-indazol-1-yl)benzamide], the half-inhibitory concentration (IC50) in test [1] was 0.28 µM; in the test with SK-BR-3 cells, 0.17 µM.

For `Cn1cc(-c2cn(-c3cccc4c3c(C(F)(F)F)nn4-c3ccc(C(N)=O)cc3N)cn2)cn1` [Example 24, 3-Amino-4-(4-(4-(1-methyl-1H-pyrazol-4-yl)-1H-imidazol-1-yl)-3-(trifluoromethyl)-1H-indazol-1-yl)benzamide], the results for the IC50 (in test [1]; with SK-BR-3 cells) were 0.08 µM and 0.13 µM, respectively.

As to `NC(=O)c1ccc(-n2nc(C(F)(F)F)c3c(-n4cnc(-c5cccnc5)c4)cccc32)c(N)c1` [Example 25, 3-Amino-4-(4-(4-(pyridin-3-yl)-1H-imidazol-1-yl)-3-(trifluoromethyl)-1H-indazol-1-yl)benzamide], the IC50 in test [1] was found to be 0.1 µM; with SK-BR-3 cells it was 0.17 µM.
